We go through 1 molecule from US9289444B2, “Composition for promoting hematogenesis containing quercetin 3-O-β-(2″-galloyl)-rhamnopyranoside as active ingredient” (Chungbuk National University Industry Academic Cooperation …, priority 2011, dated 2016).

One data set concerns BMNCs. The data set can be described thus: Cell viability assay (CCK-8), normoxia or hypoxia. The data set is classed as cell-based, mouse. From the text:
Bone marrow mononuclear cells (BMNCs) were isolated from femurs and tibias of 8 to 12-week-old male C57BL/6 mice by a previously described protocol [Kroeger K, Collins M, Ugozzoli (2009) The preparation of primary hematopoietic cell cultures from murine bone marrow for electroporation. J. Vis. Exp. 23: pii:1026. doi:10.3791/1026] and were separated from dead cells and red blood cells (RBCs) by Histopaque ([…]) (Sigma-Aldrich Chemical, St. Louis, Mo., USA) density gradient centrifugation. Thereafter, the cells were cultured in Iscove's modified Dulbecco's media (IMDM) with 15% heat inactivated fetal bovine serum (FBS), 1% bovine serum albumin (BSA), 100 units/ml penicillin and 100 μg/ml streptomycin at 37° C. in 5% CO2 humidified air. The separated blood was cultured as described previously [Oswald J, et al. (2004). Mesenchymal stem cells can be differentiated into endothelial cells in vitro. Stem Cells, 22: 377-384.] to obtain bone marrow stromal cells in α-minimum essential medium (MEM) with 20% heat inactivated FBS, 100 units/ml penicillin and 100 μg/ml streptomycin at 37° C. in 5% CO2 humidified air.
The possible cytotoxicity of QGR was examined in BMNCs. The cells were plated with a density of 5×10^3 cells/well in 96 well plates in 200 μl of medium. The cells cultured for 24 hrs with variable concentrations of QGR in either normoxia or hypoxia conditions were evaluated using a cell counting-8 assay kit (CCK-8) according to the manufacturer's instructions (Dojindo Molecular Technologies, Rockville, Md., USA). Briefly, 20 μl of CCK-8 solution was added to each well. The plates were incubated for 2 hrs in an incubator at 37° C. The resulting color was assayed at 450 nm using an EL808 microplate absorbance reader (BIO-TEK, Winooski, Vt., USA).

In data set [1] the test system is bone marrow failure mouse induced by busulphan (BU). The data set can be described thus: Semisolid colonogenic assay for BFU-E in BU bone marrow failure model. The data set is classed as in vivo, Balb/c mice. The settings on record: from 10 days to 63 days after QGR administration, vs positive control group. The procedure:
Bone marrow failure model induced by administering busulphan (BU) was designed according to the procedures previously described by Molyneux et al (Cell Biol Toxicol 27, 13-40, 2011) and the scheme is shown in FIG. 8. BU (Sigma chemicals, Poole, Dorset, UK) was dissolved in acetone to a final concentration of 18.8 mg/ml, diluted five-fold with distilled water, and was intraperitoneally administered three times for 5 days with the dose of 0.2 ml BU solution per mouse. Equal amount of five-fold diluted acetone solution without BU was administered to vehicle control group. QGR was dissolved in dimethylsulfoxide and diluted with distilled water to a final concentration of 1.25%. Mice were orally administered every two days with QGR (0.25 mg/mouse) for 63 days. Seven or eight mice were sacrificed on days of 1, 5, 10, 16, 25, 40, 49, and 63 after BU administration and were investigated to confirm the effect of QGR to recover bone marrow failure.
In order to investigate whether QGR has an activity to promote the differentiation from hematopoietic stem cells to BFU-E namely an erythroid progenitor in the damaged bone marrow induced by BU administration, the semisolid colonogenic assay was carried out. […] 14 days later, the number of BFU-E colony was counted.

In the next data set the test system is LPS-induced Balb/c mice. The conditions noted are these: cited from earlier work.

For `CC1OC(Oc2c(-c3ccc(O)c(O)c3)oc3cc(O)cc(O)c3c2=O)C(OC(=O)c2cc(O)c(O)c(O)c2)C(O)C1O` (stereo not drawn) [QGR, quercetin 3-O-β-(2″-galloyl)-rhamnopyranoside], the cell viability entry in the data set on BMNCs (50 μM, 24 hrs) is “significantly increased cell viability”. Also, in the data set with BMNCs (BMNCs, 24 hrs, various concentrations), the cytotoxicity entry is reported as “not cytotoxic”. Besides, the “cell viability after hypoxic damage” value in the data set with BMNCs (QGR post-treatment 200 μM, hypoxic damage for 24 hrs) is “increased cell viability”. Moreover, in the data set with BMNCs (QGR pretreatment, hypoxic damage 24 hrs, vs untreated group, dose-dependent), the “viable cells under hypoxic damage” value is recorded as “increased the viable cells”. For the same molecule, the “number of BFU-E” value in data set [1] was “increased significantly and consistently”. In the data set on LPS-induced Balb/c mice, the nitric oxide production result is on record as “inhibiting”.
